Consider seven compounds from ChEMBL document CHEMBL4118177, “Valproic acid induces three novel cytotoxic secondary metabolites in Diaporthe sp., an endophytic fungus from Datura inoxia Mill” (Bioorg Med Chem Lett, 2018).

Experiment [1] in a line: Antioxidant activity assessed as DPPH free radical scavenging activity at 25 uM after 30 mins in dark by spectrophotometric method relative to control. It counts as functional.
Experiment [2] can be described thus: Antioxidant activity assessed as DPPH free radical scavenging activity at 6.25 uM after 30 mins in dark by spectrophotometric method relative to control. The class given is functional.
A short description of experiment [3]: Antioxidant activity assessed as DPPH free radical scavenging activity at 12.5 uM after 30 mins in dark by spectrophotometric method relative to control. It counts as functional.
The test system of experiment [4] is MIA PaCa-2. In words: Cytotoxicity against human MIAPaCa2 cells assessed as reduction in cell viability after 48 hrs by MTT assay. It counts as functional, cell-based. The following applies: MIA PaCa-2, 48 h. In general terms: Tetrazolium dyes change colour on reduction, which living cells bring about.
Experiment [5] relates to Pseudomonas aeruginosa. As to the kind of experiment: Antibacterial activity against Pseudomonas aeruginosa ATCC 27853 at 62.5 uM after 24 hrs. The class given is functional, organism-based.
Experiment [6] is described as follows: Antioxidant activity assessed as DPPH free radical scavenging activity after 30 mins in dark by spectrophotometric method. The class given is functional. (In general: The DPPH test is a chemical assay of radical scavenging.)
The subject of experiment [7] is PC-3. As to the kind of experiment: Cytotoxicity against human PC3 cells assessed as reduction in cell viability after 48 hrs by MTT assay. It counts as functional, cell-based. The following applies: PC-3, 48 h.
Experiment [8] concerns Staphylococcus aureus. As to the kind of experiment: Antibacterial activity against Staphylococcus aureus ATCC 25923 at 62.5 uM after 24 hrs. The class given is functional, organism-based.
Experiment [9] in a line: Antioxidant activity assessed as DPPH free radical scavenging activity at 50 uM after 30 mins in dark by spectrophotometric method relative to control. It counts as functional.
The test system of experiment [10] is MCF7. In words: Cytotoxicity against human MCF7 cells assessed as reduction in cell viability after 48 hrs by MTT assay. It counts as functional, cell-based. The following applies: MCF7, 48 h.
Experiment [11] is described as follows: Antioxidant activity assessed as DPPH free radical scavenging activity at 100 uM after 30 mins in dark by spectrophotometric method relative to control. It counts as functional.
Experiment [12] concerns Escherichia coli. As to the kind of experiment: Antibacterial activity against Escherichia coli ATCC 25922 at 62.5 uM after 24 hrs. It counts as functional, organism-based.
Experiment [13] has as its system T47D. As to the kind of experiment: Cytotoxicity against human T47D cells. It counts as functional, cell-based.

Activity calls are given as the source filed them. The calls are words filed in the database; no cut-off is given here.

`CCC/C=C/[C@@H]1OC(=O)c2cc(O)cc(O)c2[C@@H]1O`: the Activity in experiment [1] was 58%; in [2], 34.3%; in experiment [3], 55%; in experiment [9], 59%; in experiment [11], 61%. For the same compound, the IC50 in experiment [4], in [7] and in experiment [10] was greater than 50 µM in each case. In addition, the result in [5], in [8] and in experiment [12] was inactive. Moreover, the EC50 in experiment [6] is 10.3 µM.

In the case of `CCC[C@@H]1C[C@H](O)[C@@H](OC)/C=C/C=C\C(=O)O1`, the Activity in [1] was determined as 7.12%; in [2] it was 2.37%; in experiment [3] it was 4.04%; in [9], 8.13%; in experiment [11], 10%. For the same compound, the IC50 in [4] is 34 µM; in experiment [7], 22 µM; in [10], greater than 50 µM. Besides, the result in experiment [5], in experiment [8] and in [12] was inactive. Also, the EC50 in experiment [6] was greater than 100 µM.

Turning to `CC(=O)O[C@H]1C(=O)[C@@]2(C)[C@H]([C@H](OC(=O)c3ccccc3)[C@]3(O)C[C@H](OC(=O)[C@H](O)[C@@H](NC(=O)c4ccccc4)c4ccccc4)C(C)=C1C3(C)C)[C@]1(OC(C)=O)CO[C@@H]1C[C@@H]2O` [PACLITAXEL], the IC50 in experiment [4] was 0.006 µM; in [7] it was 0.007 µM.

In the case of `O=C1O[C@H]([C@@H](O)CO)C(O)=C1O` [ASCORBIC ACID], the Activity was 76.5% in experiment [1]; 52.7% in experiment [2]; 60.9% in [3]; 85.8% in experiment [9]; 87.8% in [11]. In addition, the EC50 in experiment [6] was 6.2 µM.

As to `O=C(O)c1cn(C2CC2)c2cc(N3CCNCC3)c(F)cc2c1=O`, the outcome in [5], in experiment [8] and in experiment [12] was Active.

As for `CCC[C@@H]1C[C@H](O)[C@@H](O)/C=C/C=C\C(=O)O1`, the Activity in experiment [1] was 37.4%; in experiment [2] it was 35%; in experiment [3], 36.6%; in experiment [9] it was 38.5%; in experiment [11], 39.1%. Moreover, the half-inhibitory concentration (IC50) came out at 32 µM in experiment [4], 7 µM in [13], 18 µM in experiment [7] and 29 µM in [10]. Further, the outcome in experiment [5], in experiment [8] and in [12] was inactive. Also, the concentration for a half-maximal effect (EC50) in experiment [6] was greater than 100 µM.

Regarding `CCC[C@H]1OC(=O)/C=C\C=C\[C@H](O)[C@@H](O)[C@@H]1[C@H](C)COC(=O)c1ccc(O)cc1`, the Activity in [1] was determined as 48.3%; in experiment [2], 22.1%; in experiment [3], 26.8%; in [9], 59%; in experiment [11], 63%. Besides, the IC50 in [4] came to 20 µM; in experiment [7] it was 14 µM; in experiment [10], 30 µM. Besides, the outcome in [5], in experiment [8] and in experiment [12] was inactive. For the same compound, the EC50 in [6] turned out to be 27.5 µM.

In general, IC50 refers to the concentration that gives 50% inhibition. The EC50 is the concentration that produces a half-maximal response.
